Reference: ChEMBL document CHEMBL1201862, “PubChem BioAssay data set” (2004)
Active and inactive are the calls of the source. Rule as the data show it, for most assays here: actives have a measured IC50 and inactives only a lower limit.

What was measured:
[1] = test system: HEK293; assay: cells; assay type: functional, cell-based; details: Homo sapiens
[2] = molecular target: T1, Nuclear receptor subfamily 0 group B member 1 (Homo sapiens, UniProt P51843); assay: Luminescence-based cell-based high throughput dose response assay for inhibitors of the orphan nuclear receptor subfamily 0, group B, member 1 (DAX1; NR0B1). [Related pubchem assays (depositor defined):AID504766, AID504790]; assay type: functional
T1 sequence (P51843 whole entry): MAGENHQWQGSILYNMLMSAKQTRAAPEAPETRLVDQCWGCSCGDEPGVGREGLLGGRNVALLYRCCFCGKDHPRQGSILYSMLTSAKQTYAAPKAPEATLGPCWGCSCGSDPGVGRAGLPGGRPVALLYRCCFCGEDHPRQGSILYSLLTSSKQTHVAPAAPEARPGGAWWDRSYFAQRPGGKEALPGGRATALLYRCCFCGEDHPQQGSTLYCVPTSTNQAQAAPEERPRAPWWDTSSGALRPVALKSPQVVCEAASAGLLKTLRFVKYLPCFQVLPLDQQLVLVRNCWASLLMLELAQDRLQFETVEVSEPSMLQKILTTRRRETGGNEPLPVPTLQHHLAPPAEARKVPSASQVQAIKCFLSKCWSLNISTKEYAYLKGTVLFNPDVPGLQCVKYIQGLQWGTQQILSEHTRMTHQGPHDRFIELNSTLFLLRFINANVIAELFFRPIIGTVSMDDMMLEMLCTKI

[3] = molecular target: T2, Rac GTPase-activating protein 1 (Homo sapiens, UniProt Q9H0H5); assay: MgcRacGAP GTPase-activating activity inhibitors, confirmation, biochemical, ADP Hunter fluorescence, primary and confirmatory (AID 624330); assay type: functional
T2 sequence (Q9H0H5 whole entry): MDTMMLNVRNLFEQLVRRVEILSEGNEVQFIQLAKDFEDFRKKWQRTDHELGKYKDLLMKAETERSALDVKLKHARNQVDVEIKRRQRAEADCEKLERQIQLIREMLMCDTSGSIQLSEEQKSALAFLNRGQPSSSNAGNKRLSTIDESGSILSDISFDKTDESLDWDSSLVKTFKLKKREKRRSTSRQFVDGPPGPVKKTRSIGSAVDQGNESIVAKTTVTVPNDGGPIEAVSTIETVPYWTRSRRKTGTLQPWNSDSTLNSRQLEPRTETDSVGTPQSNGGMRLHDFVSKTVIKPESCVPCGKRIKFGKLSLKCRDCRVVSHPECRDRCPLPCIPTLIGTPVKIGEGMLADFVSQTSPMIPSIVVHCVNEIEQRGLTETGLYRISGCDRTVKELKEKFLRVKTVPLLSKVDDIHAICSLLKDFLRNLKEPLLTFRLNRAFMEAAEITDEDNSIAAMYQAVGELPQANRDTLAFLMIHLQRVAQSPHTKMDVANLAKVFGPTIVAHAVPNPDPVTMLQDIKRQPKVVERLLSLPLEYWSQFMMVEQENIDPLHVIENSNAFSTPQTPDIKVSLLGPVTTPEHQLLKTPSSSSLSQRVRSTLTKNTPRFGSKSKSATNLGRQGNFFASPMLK

[4] = NIH-3T3 fibroblast cytotoxicity, dose response, cytotoxicity control, cell-based, fluorescence, Alamar Blue, secondary assay (AID 2327); assay type: functional;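 also: NIH-3T3 mouse fibroblasts cultured with fluconazole at 8 µg/mL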
[5] = C. albicans growth with fluconazole, confirmation, fluorescence, retest (AID 2467); assay type: functional, cell-based
[6] = molecular target: Serine/threonine-protein phosphatase (Candida dubliniensis (strain CD36 / CBS 7987 / NCPF 3949 / NRRLY-17841) (Yeast), UniProt B9W6M3); assay: calcineurin pathway inhibitors in yeast reporter, dose response, S. cerevisiae, CDRE-lacZ, luminescence, secondary (AID 2388); assay type: functional, cell-based;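 also: yeast reporter cells carrying a calcineurin-responsive lacZ construct stimulated with calcium chloride; luminescent beta-galactosidase reporter signal in whole cells rather than isolated phosphatase activity; potency for inhibition where a drop in reporter signal means calcineurin blockade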
Sequence of Serine/threonine-protein phosphatase (B9W6M3 whole entry): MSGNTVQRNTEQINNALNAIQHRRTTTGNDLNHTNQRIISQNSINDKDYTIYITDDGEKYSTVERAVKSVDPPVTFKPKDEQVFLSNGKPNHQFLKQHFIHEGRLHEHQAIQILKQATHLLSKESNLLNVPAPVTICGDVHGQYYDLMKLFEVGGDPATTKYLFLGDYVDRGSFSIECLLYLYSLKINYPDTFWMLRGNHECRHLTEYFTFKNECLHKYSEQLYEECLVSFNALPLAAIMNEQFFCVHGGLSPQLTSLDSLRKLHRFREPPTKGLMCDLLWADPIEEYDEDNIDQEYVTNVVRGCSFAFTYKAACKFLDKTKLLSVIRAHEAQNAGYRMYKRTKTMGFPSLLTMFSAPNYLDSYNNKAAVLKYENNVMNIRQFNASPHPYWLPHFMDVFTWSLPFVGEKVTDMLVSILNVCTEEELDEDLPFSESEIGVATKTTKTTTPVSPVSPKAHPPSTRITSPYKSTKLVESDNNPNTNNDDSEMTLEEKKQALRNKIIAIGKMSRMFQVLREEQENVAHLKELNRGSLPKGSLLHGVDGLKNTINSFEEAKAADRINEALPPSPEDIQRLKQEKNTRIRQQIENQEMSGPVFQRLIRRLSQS

[7] = molecular target: ATP-dependent molecular chaperone HSP82 (Candida albicans (strain WO-1) (Yeast), UniProt C4YTQ8); assay: loss of DOC-induced GRE-beta-galactosidase reporter signal, dose response, Hsp90 inhibitor project, S. cerevisiae, luminescence (AID 2400); assay type: functional, cell-based;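 also: beta-galactosidase luminescence from glucocorticoid response element reporter as proxy for Hsp90 function; inhibitor potency where signal loss means Hsp90 inhibition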
Sequence of ATP-dependent molecular chaperone HSP82 (C4YTQ8 whole entry): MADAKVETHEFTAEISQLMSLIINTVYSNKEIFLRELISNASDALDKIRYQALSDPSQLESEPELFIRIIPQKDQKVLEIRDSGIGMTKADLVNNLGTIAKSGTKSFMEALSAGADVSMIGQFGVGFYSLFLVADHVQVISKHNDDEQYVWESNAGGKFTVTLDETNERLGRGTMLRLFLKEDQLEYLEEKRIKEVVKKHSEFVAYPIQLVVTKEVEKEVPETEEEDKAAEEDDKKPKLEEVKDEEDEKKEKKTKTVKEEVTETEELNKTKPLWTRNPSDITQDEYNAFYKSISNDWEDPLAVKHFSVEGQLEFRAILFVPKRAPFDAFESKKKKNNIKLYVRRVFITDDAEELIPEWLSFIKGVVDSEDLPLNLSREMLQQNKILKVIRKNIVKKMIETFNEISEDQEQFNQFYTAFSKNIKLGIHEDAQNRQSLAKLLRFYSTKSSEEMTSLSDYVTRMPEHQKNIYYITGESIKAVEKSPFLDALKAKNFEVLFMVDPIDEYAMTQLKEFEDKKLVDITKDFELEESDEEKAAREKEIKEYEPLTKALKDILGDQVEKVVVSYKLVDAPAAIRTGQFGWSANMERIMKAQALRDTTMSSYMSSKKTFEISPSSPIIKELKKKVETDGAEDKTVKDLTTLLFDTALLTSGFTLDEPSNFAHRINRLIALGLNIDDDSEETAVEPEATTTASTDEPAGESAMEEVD

[8] = molecular target: T3, Caspase-3 (Homo sapiens, UniProt P42574); assay: caspase-3 inhibitors as off-family protease, SAR follow-up, selectivity assay for SENP protease inhibitor project, biochemical, luminescence, set 2 (AID 588599); assay type: functional
T3 sequence (P42574 whole entry): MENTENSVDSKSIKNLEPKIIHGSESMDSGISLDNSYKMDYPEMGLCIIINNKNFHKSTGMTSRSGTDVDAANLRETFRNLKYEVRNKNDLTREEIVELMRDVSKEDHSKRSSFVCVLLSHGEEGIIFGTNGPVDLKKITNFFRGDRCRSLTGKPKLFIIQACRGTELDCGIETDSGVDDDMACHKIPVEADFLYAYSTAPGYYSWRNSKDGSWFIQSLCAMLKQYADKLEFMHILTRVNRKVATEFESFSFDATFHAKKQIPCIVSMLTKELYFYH

[9] = molecular target: T4, Sentrin-specific protease 8 (Homo sapiens, UniProt Q96LD8); assay: SENP8 protease inhibitors, SAR follow-up, biochemical, luminescence, set 2 (AID 588601); assay type: functional
T4 sequence (Q96LD8 whole entry): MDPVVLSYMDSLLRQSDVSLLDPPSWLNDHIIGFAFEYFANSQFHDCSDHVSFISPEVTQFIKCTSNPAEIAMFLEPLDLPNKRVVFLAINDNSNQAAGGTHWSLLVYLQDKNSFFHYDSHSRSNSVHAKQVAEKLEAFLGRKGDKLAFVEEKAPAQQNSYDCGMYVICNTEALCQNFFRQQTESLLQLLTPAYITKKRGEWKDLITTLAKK

[10] = molecular target: T5, Sentrin-specific protease 7 (Homo sapiens, UniProt Q9BQF6); assay: SENP7 protease inhibitors, SAR follow-up, biochemical, luminescence, set 2 (AID 588600); assay type: functional
T5 sequence (Q9BQF6 whole entry): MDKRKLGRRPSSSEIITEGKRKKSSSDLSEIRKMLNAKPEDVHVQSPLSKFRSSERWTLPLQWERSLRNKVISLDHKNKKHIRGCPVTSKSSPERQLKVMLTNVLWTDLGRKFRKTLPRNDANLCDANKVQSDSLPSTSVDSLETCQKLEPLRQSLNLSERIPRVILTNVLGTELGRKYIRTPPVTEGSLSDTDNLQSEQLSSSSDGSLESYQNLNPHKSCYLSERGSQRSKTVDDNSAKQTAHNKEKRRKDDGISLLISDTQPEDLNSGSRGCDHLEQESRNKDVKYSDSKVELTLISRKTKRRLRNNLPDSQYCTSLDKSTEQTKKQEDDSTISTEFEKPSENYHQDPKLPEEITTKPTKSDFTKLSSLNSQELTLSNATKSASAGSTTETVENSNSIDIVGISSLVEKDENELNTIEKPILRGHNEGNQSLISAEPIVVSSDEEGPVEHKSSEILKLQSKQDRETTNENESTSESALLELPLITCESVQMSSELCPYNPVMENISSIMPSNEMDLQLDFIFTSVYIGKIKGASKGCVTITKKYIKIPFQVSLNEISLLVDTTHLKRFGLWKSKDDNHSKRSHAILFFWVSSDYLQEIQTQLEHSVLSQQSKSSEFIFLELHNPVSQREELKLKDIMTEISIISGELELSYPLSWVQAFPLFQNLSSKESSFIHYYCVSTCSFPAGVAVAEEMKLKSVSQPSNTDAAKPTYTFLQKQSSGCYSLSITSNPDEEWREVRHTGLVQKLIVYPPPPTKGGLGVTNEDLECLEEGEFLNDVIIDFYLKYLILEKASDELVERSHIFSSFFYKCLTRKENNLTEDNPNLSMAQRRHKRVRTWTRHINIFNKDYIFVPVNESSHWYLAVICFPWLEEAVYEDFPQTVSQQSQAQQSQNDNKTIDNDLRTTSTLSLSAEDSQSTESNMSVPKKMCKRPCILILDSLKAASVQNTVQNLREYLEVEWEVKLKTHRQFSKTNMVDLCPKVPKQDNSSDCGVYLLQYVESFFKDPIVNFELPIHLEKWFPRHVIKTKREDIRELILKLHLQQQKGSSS

[11] = molecular target: T6, Sentrin-specific protease 6 (Homo sapiens, UniProt Q9GZR1); assay: SENP6 protease inhibitors, SAR follow-up, biochemical, luminescence, set 2 (AID 588598); assay type: functional
T6 sequence (Q9GZR1 whole entry): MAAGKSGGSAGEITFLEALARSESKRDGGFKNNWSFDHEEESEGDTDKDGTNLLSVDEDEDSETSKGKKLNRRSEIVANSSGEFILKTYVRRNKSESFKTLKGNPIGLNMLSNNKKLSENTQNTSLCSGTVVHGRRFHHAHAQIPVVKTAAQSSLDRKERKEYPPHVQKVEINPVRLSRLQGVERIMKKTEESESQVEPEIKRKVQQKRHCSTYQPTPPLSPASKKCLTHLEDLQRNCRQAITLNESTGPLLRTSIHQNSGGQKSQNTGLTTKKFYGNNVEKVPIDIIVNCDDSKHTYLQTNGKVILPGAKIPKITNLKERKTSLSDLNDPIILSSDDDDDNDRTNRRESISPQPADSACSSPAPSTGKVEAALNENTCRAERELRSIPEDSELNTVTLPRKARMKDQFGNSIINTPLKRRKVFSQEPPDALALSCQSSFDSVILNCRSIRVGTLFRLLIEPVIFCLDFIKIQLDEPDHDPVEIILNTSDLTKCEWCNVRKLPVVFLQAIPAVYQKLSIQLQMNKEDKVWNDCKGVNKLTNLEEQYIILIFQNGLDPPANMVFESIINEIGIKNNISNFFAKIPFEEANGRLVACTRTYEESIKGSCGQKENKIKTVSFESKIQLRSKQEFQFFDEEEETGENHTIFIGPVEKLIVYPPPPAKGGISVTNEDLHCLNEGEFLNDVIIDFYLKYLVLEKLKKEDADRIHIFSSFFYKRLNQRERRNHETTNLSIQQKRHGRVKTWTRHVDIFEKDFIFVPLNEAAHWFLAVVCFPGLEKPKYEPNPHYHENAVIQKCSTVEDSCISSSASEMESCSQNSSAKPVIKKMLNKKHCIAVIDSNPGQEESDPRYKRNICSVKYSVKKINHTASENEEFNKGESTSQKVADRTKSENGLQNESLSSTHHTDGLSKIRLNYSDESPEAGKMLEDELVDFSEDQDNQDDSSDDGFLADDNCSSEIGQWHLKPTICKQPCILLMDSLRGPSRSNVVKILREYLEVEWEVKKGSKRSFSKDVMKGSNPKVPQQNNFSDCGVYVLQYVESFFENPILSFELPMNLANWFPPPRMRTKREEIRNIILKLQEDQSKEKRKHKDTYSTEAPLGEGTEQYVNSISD

[12] = molecular target: T4, Sentrin-specific protease 8; assay: SENP8 protease inhibitors, SAR follow-up, biochemical, luminescence (AID 504501); assay type: functional
[13] = molecular target: T3, Caspase-3; assay: SAR Analysis of small molecule inhibitors of Sentrin-specific proteases (SENPs) using a Caspase-3 Selectivity assay. [Related pubchem assays (depositor defined):AID2540, AID2599, AID434973, AID489001]; assay type: functional
[14] = molecular target: T6, Sentrin-specific protease 6; assay: SAR Analysis of small molecule inhibitors of Sentrin-specific protease 6 (SENP6) using a Luminescent assay. [Related pubchem assays (depositor defined):AID2582, AID2599]; assay type: functional
[15] = molecular target: T5, Sentrin-specific protease 7; assay: SENP7 protease inhibitors, SAR follow-up, biochemical, luminescence (AID 504497); assay type: functional

Compound | IC50 [1] | IC50 [2] | IC50 [8] | IC50 [9] | IC50 [10] | IC50 [11] | further results
COc1ccccc1-c1nnc(-c2ccc(C)cc2)o1 | > 67.5 µM (inactive) | > 67.5 µM (inactive) |  |  |  |  | 
Cn1c(N2CCOCC2)c(/C=N/O)c2ccccc21 | > 67.5 µM (inactive) | > 67.5 µM (inactive) |  |  |  |  | IC50 [3]: 74.5 µM (active)
N#Cc1cc(C#N)c(N2CCN(c3cccc(Cl)n3)CC2)nc1N |  |  |  |  |  |  | EC50 [4]: > 150 µM (inactive); EC50 [5]: 1.47 µM (active); EC50 [6]: > 180 µM (inactive); EC50 [7]: 23.7 µM (active)
O=C(Nc1nc2ccccc2s1)c1cccc(S(=O)(=O)N2CCN(c3ccccc3)CC2)c1 |  |  | > 99 µM (inactive) | > 99 µM (inactive) | > 99 µM (inactive) | > 99 µM (inactive) | 
O=C(Nc1nc2ccccc2s1)c1ccsc1 |  |  | 10.4 µM (active) | 9.92 µM (active) | 10.3 µM (active) | 10.6 µM (active) | IC50 [12]: 1.4 µM (active); IC50 [13]: 1.1 µM (active); IC50 [14]: 1.4 µM (active); IC50 [15]: 1.1 µM (active)
